# Entries after “also recorded” stand apart in the source; their conditions may differ.
# Experiments:
# [1] = tested on: luciferase RNA containing a UGA premature termination codon; assay: in vitro translation nonsense suppression assay in HeLa cell extract; assay type: biochemical, human; conditions: FIG. 4
# Description: This Example describes a method of preparing a cell extract to perform in vitro translation reactions to monitor nonsense suppression or to produce proteins in vitro. This method is different from other methods used to prepare translation extracts for several reasons.
# HeLa S3 cells were grown to a density of 10^6 cells/ml in DMEM; 5% CO2, 10% FBS, 1×P/S in a spinner flask. Cells were harvested by spinning at 1000×g. Cells were washed twice with phosphate buffered saline. The cell pellet sat on ice for 12 to 24 hours before proceeding. By letting the cells sit on ice, the activity of the extract is increased two-fold. The length of time on ice can range from 0 hours to 1 week. The cells were resuspended in 1.5 volumes (packed cell volume) of hypotonic buffer (10 mM HEPES (KOH) pH 7.4; 15 mM KCl; 1.5 mM Mg(OAc)2; 0.5 mM Pefabloc (Roche); 2 mM DTT). Cells were allowed to swell for 5 minutes on ice and dounce homogenized with 10 to 100 strokes using a tight-fitting pestle. The cells were spun for 10 minutes at 12000×g at 4° C. in a Sorvall SS-34 rotor. […]
# Further, in the presence of the aminoglycoside gentamicin, nonsense suppression activity (as measured by the amount of luciferase activity produced from a luciferase RNA containing a UGA premature termination codon) is increased 2 to 3 fold above untreated extracts (see FIG. 4). […]
# [2] = tested on: mRNA containing a UGA premature termination codon; assay: biochemical assay: rabbit reticulocyte lysate and nonsense-containing luciferase reporter mRNA
# Description: (§1) Two assays were developed for use in high throughput screens to identify small molecules that promote nonsense suppression. Each assay utilized luciferase because it is a functional reporter gene assay (light is only produced if the protein is functional) and it is extremely sensitive (Light intensity is proportional to luciferase concentration in the nM range). The first assay was a cell-based luciferase reporter assay and the second was a biochemical assay consisting of rabbit reticulocyte lysate and a nonsense-containing luciferase reporter mRNA. In the cell-based assay, a luciferase reporter construct containing a UGA premature termination codon was stably transfected in 293T Human Embryonic Kidney cells. In the biochemical assay, mRNA containing a UGA premature termination codon was used as a reporter in an in vitro translation reaction using rabbit reticulocyte lysate supplemented with tRNA, hemin, creatine kinase, amino acids, KOAc, Mg(OAc)2, and creatine phosphate. […] Synthetic mRNA was prepared in vitro using the T7 promoter and the MegaScript in vitro transcription kit (Ambion).
# dystrophin [3] = assay: dystrophin immunofluorescence of tibialis anterior muscle of mdx mice treated by Alzet osmotic pumps; assay type: in vivo, mouse; conditions: tissue exposure approximately 200 μM, osmotic pump
# Description: FIG. 10A-10F. Immunohistochemistry of muscle cross-sections to view dystrophin. […] Muscle from untreated mdx mice (panel E) or from cross sections not treated with primary antibody (panel F) show only minimal staining.
# As previously described (Barton-Davis et al., 1999, J Clin Invest. 104(4):375-381), compound was delivered by Alzet osmotic pumps implanted under the skin of anesthetized mice. Two doses of Compound A were administered. Gentamicin served as a positive control and pumps filled with solvent only served as the negative control. Pumps were loaded with appropriate compound such that the calculated doses to which tissue was exposed were 10 μM and 20 μM. The gentamicin concentration was calculated to achieve tissue exposure of approximately 200 μM. In the initial experiment, mice were treated for 14 days, after which animals were anesthetized with ketamine and exsanguinated. The tibialis anterior (TA) muscle of the experimental animals was then excised, frozen, and used for immunofluorescence analysis of dystrophin incorporation into striated muscle. The presence of dystrophin in TA muscles was detected by immunostaining, as described previously (Barton-Davis et al., 1999, J Clin Invest. 104(4):375-381; see mdx primary cells in Section 7.8 supra).
# [4] = tested on: UGA, UAA or UAG nonsense alleles of luciferase; assay: nonsense suppression in cells transiently transfected with luciferase nonsense alleles in each codon context; assay type: cell-based; conditions: 3 mg/ml, overnight
# Description: Cells were transiently transfected with plasmids harboring the UGA, UAA or UAG nonsense alleles of luciferase in each codon context (UGAA, UGAC, UGAG, UGAU, UAGA, UAGC, UAGG, UAGU, UAAA, UAAC, UAAG, and UAAU) then the cells were treated overnight with Compound A, and gentamicin. The following day, the level of suppression was determined by measuring the amount of luminescence produced. The fold suppression above control cells treated with solvent was calculated and is numerically reported.
# [5] = tested on: luciferase reporter construct containing a UGA premature termination codon in 293T Human Embryonic Kidney cells; assay: cell-based luciferase reporter assay, stable cell line
# Description: as §1
# Compound A and Compound B increase the level of nonsense suppression in the biochemical assay three to four fold over untreated extracts. […]
# dystrophin [6] = assay: dystrophin immunostaining in mdx mouse primary skeletal muscle cultures; assay type: cell-based; conditions: 200 μM
# Description: FIG. 9. Immunohistochemistry of myotubes from primary cell culture from mdx muscle. The presence of dystrophin was detected by mAb to the COOH-terminus of dystrophin ([…]) followed by a rhodamine-conjugated anti-mouse IgG. […] Little dystrophin was detected in untreated mdx myotubes (right).
# Mouse primary skeletal muscle cultures derived from 1-day old mdx mice were prepared as described previously (Barton-Davis et al., 1999, J Clin Invest. 104(4):375-381). Cells were cultured for 10 days in the presence of Compound A (20 μM). Culture medium was replaced every four days and the presence of dystrophin in myoblast cultures was detected by immunostaining as described previously (Barton-Davis et al., 1999, J Clin Invest. 104(4):375-381). A primary monoclonal antibody to the C-terminus of the dystrophin protein (F19A12) was used undiluted and rhodamine conjugated anti-mouse IgG was used as the secondary antibody. The F19A12 antibody will detect the full-length protein produced by suppression of the nonsense codon. Staining was viewed using a Leica DMR micropscope, digital camera, and associated imaging software at the University of Pennsylvania.
substance,measurement,setting,value
gentamicin,nonsense suppression activity (luciferase activity from luciferase RNA containing a UGA premature termination codon) above untreated extracts,[1],2 to 3 fold
same,luciferase activity on addition of compound,[2],increased luciferase activity
same,dystrophin in TA muscle (immunostaining),dystrophin [3],positive staining for dystrophin
same,fold suppression above control cells treated with solvent,[4]; context UAAA,0.71 fold
same,fold suppression above control cells treated with solvent,[4]; context UAAC,2.32 fold
same,fold suppression above control cells treated with solvent,[4]; context UAAG,0.01 fold
same,fold suppression above control cells treated with solvent,[4]; context UAAU,0.92 fold
same,fold suppression above control cells treated with solvent,[4]; context UAGA,1.31 fold
same,fold suppression above control cells treated with solvent,[4]; context UAGC,2.16 fold
same,fold suppression above control cells treated with solvent,[4]; context UAGG,0.64 fold
same,fold suppression above control cells treated with solvent,[4]; context UAGU,0.54 fold
same,fold suppression above control cells treated with solvent,[4]; context UGAA,0.76 fold
same,fold suppression above control cells treated with solvent,[4]; context UGAC,1.91 fold
same,fold suppression above control cells treated with solvent,[4]; context UGAG,0.45 fold
same,fold suppression above control cells treated with solvent,[4]; context UGAU,6.74 fold
same,luciferase activity on addition of compound,[5],increased luciferase activity
same,"presence of full-length dystrophin in myotubes (immunostaining, C-terminus antibody)",dystrophin [6],full-length dystrophin protein is produced and localized to the muscle myotubes; also recorded: Dystrophin was present

# — patent US7291461B2, “Methods for identifying small molecules that modulate premature translation termination and nonsense mRNA decay” (PTC Therapeutics, Inc., priority 2002, dated 2007)
